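These data come from cells grown in 96-well plates and exposed to compound for 48 hours at five concentrations. GI50 is the concentration that inhibits growth by half.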 Activity calls are given as the source filed them. No stated cut-off is given here; in the data, active = GI50 up to about 1.1 µM and inactive = higher.
Columns and labels:
Test in all cases: NCI-60 cell line screen, 48 h
CCRF-CEM = system: CCRF-CEM
EKVX = system: EKVX
SK-OV-3 = system: SK-OV-3
HOP-62 = system: HOP-62
K562 = system: K562
SF-539 = system: SF-539
HT-29 = system: HT-29
SNB-19 = system: SNB-19
RPMI-8226 = system: RPMI-8226
A498 = system: A498
SK-MEL-28 = system: SK-MEL-28
SR = system: SR
MDA-N = system: MDA-N
NCI-H460 = system: NCI-H460
HCT-116 = system: HCT-116
MDA-MB-231 = system: MDA-MB-231
UO-31 = system: UO-31
DMS-273 = system: DMS-273
XF498 = system: XF498

| Structure (SMILES) | GI50 (CCRF-CEM) | GI50 (EKVX) | GI50 (SK-OV-3) | GI50 (HOP-62) | GI50 (K562) | GI50 (SF-539) | GI50 (HT-29) | GI50 (SNB-19) | GI50 (RPMI-8226) | GI50 (A498) | GI50 (SK-MEL-28) | GI50 (SR) | GI50 (MDA-N) | GI50 (NCI-H460) | GI50 (HCT-116) | GI50 (MDA-MB-231) | GI50 (UO-31) | GI50 (DMS-273) | GI50 (XF498) |
| --- | --- | --- | --- | --- | --- | --- | --- | --- | --- | --- | --- | --- | --- | --- | --- | --- | --- | --- | --- |
| COc1c(O)cc2oc(-c3ccc(O)cc3)cc(=O)c2c1O [HISPIDULIN] | 20.6 µM (inactive) | 8.07 µM (inactive) | 48.2 µM (inactive) | 46.7 µM (inactive) | 34.8 µM (inactive) | 27 µM (inactive) | 45.7 µM (inactive) | 56.1 µM (inactive) | 46.3 µM (inactive) | 2.57 µM (inactive) | 45.7 µM (inactive) | 27.9 µM (inactive) | 37.2 µM (inactive) | 30.8 µM (inactive) | 35.3 µM (inactive) | 74.5 µM (inactive) | 25.1 µM (inactive) |  |  |
| COC(=O)C(CBr)CBr | 0.762 µM (active) | 9.55 µM (inactive) | 18.8 µM (inactive) | 22.5 µM (inactive) | 1.57 µM (inactive) | 5.96 µM (inactive) | 4.1 µM (inactive) | 8.51 µM (inactive) | 0.757 µM (active) | 16.8 µM (inactive) | 3.77 µM (inactive) |  | 3.48 µM (inactive) | 14 µM (inactive) | 2.96 µM (inactive) | 2.12 µM (inactive) | 5.65 µM (inactive) | 12.7 µM (inactive) | 2.3 µM (inactive) |
| COc1ccc2nc3cc([N+](=O)[O-])ccc3c(Nc3ccc(S(=O)(=O)NC(C)=O)cc3)c2c1 | 23.9 µM (inactive) | 85.3 µM (inactive) | > 100 µM (inactive) | > 100 µM (inactive) | 37.2 µM (inactive) | > 100 µM (inactive) | 65 µM (inactive) | > 100 µM (inactive) | 22.1 µM (inactive) | > 100 µM (inactive) | > 100 µM (inactive) | 11.5 µM (inactive) | > 100 µM (inactive) | 40.6 µM (inactive) | 44 µM (inactive) | 50 µM (inactive) | 73.6 µM (inactive) |  |  |
| N#C/C(=C/c1cccc2ccccc12)C(=O)c1ccccc1 | 16.6 µM (inactive) | > 10 µM (inactive) | > 100 µM (inactive) | 18.3 µM (inactive) | > 10 µM (inactive) | 17.7 µM (inactive) | > 100 µM (inactive) | 19.9 µM (inactive) | 22.3 µM (inactive) | 23.1 µM (inactive) | 13.9 µM (inactive) | 26.9 µM (inactive) |  | 27.5 µM (inactive) | 18.5 µM (inactive) |  | 18.4 µM (inactive) |  | 20.1 µM (inactive) |
| CCCCCCOc1ccc(C(=O)NOC)cc1 | > 100 µM (inactive) | > 100 µM (inactive) | > 100 µM (inactive) | > 100 µM (inactive) | 40.4 µM (inactive) | > 100 µM (inactive) | > 100 µM (inactive) | > 100 µM (inactive) | 36 µM (inactive) | 99.1 µM (inactive) | > 100 µM (inactive) | 62.5 µM (inactive) | > 100 µM (inactive) | > 100 µM (inactive) | > 100 µM (inactive) | 80.5 µM (inactive) | 30.3 µM (inactive) |  |  |
| CCN(CC)c1ccc(/N=N/c2ccc(-c3nc4cccnc4s3)cc2)cc1 | > 100 µM (inactive) | > 100 µM (inactive) | > 100 µM (inactive) | > 100 µM (inactive) | > 100 µM (inactive) |  | > 100 µM (inactive) | > 100 µM (inactive) | > 100 µM (inactive) | > 100 µM (inactive) | > 100 µM (inactive) | > 100 µM (inactive) |  | 60.3 µM (inactive) | > 100 µM (inactive) |  | > 100 µM (inactive) |  | 18.2 µM (inactive) |
| C/C(=N\NC(=S)N1CCOCC1)c1nc2cccnc2[nH]1 | 30.3 µM (inactive) | 19.5 µM (inactive) | 36.6 µM (inactive) | 24.9 µM (inactive) | 51.9 µM (inactive) | 19.3 µM (inactive) | 37.2 µM (inactive) | 21.9 µM (inactive) | 42.6 µM (inactive) | > 100 µM (inactive) | 74.1 µM (inactive) | 49.5 µM (inactive) | > 100 µM (inactive) | 31.4 µM (inactive) | 27.8 µM (inactive) | 28.9 µM (inactive) | 17.5 µM (inactive) |  |  |
| [N-]=[N+]=C1C(=O)c2ccccc2-c2ccccc21 | 20.2 µM (inactive) | 30.5 µM (inactive) | 39.5 µM (inactive) | 41.2 µM (inactive) | 36.6 µM (inactive) | 24.6 µM (inactive) | 34.8 µM (inactive) | 45.8 µM (inactive) | 26.9 µM (inactive) | 16.3 µM (inactive) | 60.8 µM (inactive) | 24.5 µM (inactive) | 43.7 µM (inactive) | 32.1 µM (inactive) | 28.1 µM (inactive) | 36 µM (inactive) | 27.2 µM (inactive) |  |  |
